Here are results for 2 compounds from patent US10576057B2, “Methods for treating muscle wasting and degeneration diseases” (NEWTREE CO., LTD., priority 2015, dated 2020).

In one experiment the test system is p-mTOR. Briefly: p-mTOR protein expression by western blot in L6 muscle cells. Type of experiment: cell-based. To be noted: 5 μM, differentiation 6 days, vs 0.01% DMSO control. Here is the method:
L6 myoblasts (ATCC, Manassas, Va., USA) were added to a 6-well plate with Dulbecco's modified Eagle's Media (DMEM; Hyclone) containing 10% fetal bovine serum (FBS; Hyclone, Logan, Utah, USA) at a concentration of 2×10^5 cells/mL. When the cell density reached about 80 to 85%, the medium in the wells was removed. The ethanol extract of Mori Cortex Radicis (20 μg/mL) prepared in Example 1-2, the hot water extract of Mori Cortex Radicis (20 μg/mL) prepared in Example 1-5, the morusin (5 μM) and the kuwanon G (5 μM) isolated and purified in Example 2 were dissolved in DMEM (Hyclone) containing 2% HS (Hyclone), followed by its treatment to the cells to induce myotube differentiation. Meanwhile, a group treated with 0.01% DMSO instead of the sample was used as a control group. This procedure was carried out for 6 days in two days to differentiate and then dissolved in NP-40 buffer solution (ELPIS-Biotech, Daejeon, Republic of Korea) containing proteinase inhibitor cocktail. The cells dissolved in the buffer solution were transferred to a 1.5-mL tube and centrifuged at 13,000 rpm for 10 minutes to take only a supernatant. The supernatant was quantified using Bradford (Bio-Rad Laboratories Inc., Hercules, Calif., USA). The quantified proteins were boiled for 5 minutes, separated by electrophoresis on 10% SDS-PAGE, and were transferred to the nitrocellulose membrane. […]
Background: A western blot detects proteins with antibodies after separation by electrophoresis.

The test system of a further experiment is myogenin. Kind of experiment: myogenin mRNA expression by RT-PCR in L6 muscle cells. Type of experiment: cell-based. To be noted: 6 days. The procedure:
Muscle cells, L6 myoblasts (ATCC) were added to a 6-well plate at 2×10^5 cells/ml together with DMEM (Hyclone) containing 10% FBS (Hyclone). When the cell density reached about 80 to 85%, the medium in the wells was removed. […] Meanwhile, a group treated with 0.01% DMSO instead of the sample was used as a control group. This procedure was carried out for 6 days in two days to differentiate and total RNA was isolated using TRIzol reagent (Invitrogen. Carlsbad, Calif., USA). The isolated total RNA was quantified using NanoDrop 1000 (Thermo Fisher Scientific Inc., MA, USA). Quantified 16 μL of RNA was synthesized into cDNA using Reverse Transcriptase Premix (ELPIS-Biotech) and PCR machine (Gene Amp PCR System 2700: Applied Biosystems, MA, USA) at 42° C. for 55 minutes and 70° C. for 15 minutes. 4 μL out of 16 μL cDNA was amplified by PCR using the following specific primers (Bioneer, Daejeon, Republic of Korea) and PCR premix (ELPIS-Biotech). PCR was performed by repeating 30 cycles of 95° C. for 30 seconds, 60° C. for 1 minute, and 72° C. for 1 minute.
PCR-amplified cDNA was separated by electrophoresis on 1.5% agarose gel and cDNA band was identified using G:BOX EF imaging system (Syngene).
L6 myoblast (ATCC) were cultured in the same manner as in Example 7. […]

In the case of `CC(C)=CCc1c(-c2ccc(O)cc2O)oc2c([C@H]3C=C(C)C[C@@H](c4ccc(O)cc4O)[C@@H]3C(=O)c3ccc(O)cc3O)c(O)cc(O)c2c1=O` [Kuwanon G, 8-[(1S,5R,6S)-6-(2,4-Dihydroxybenzoyl)-5-(2,4-dihydroxyphenyl)-3-methyl-2-cyclohexen-1-yl]-2-(2,4-dihydroxyphenyl)-5,7-dihydroxy-3-(3-methyl-2-buten-1-yl)-4H-chromen-4-one], the “expression of p-mTOR” value with p-mTOR is listed as “increased”. Further, in the experiment on myogenin (1 μM and 5 μM), the “expression of myogenin mRNA” value is reported as “increased”.

On to `CC(C)=CCc1c(-c2ccc(O)cc2O)oc2c3c(cc(O)c2c1=O)OC(C)(C)C=C3` [Morusin, 2-(2,4-Dihydroxyphenyl)-5-hydroxy-8,8-dimethyl-3-(3-methyl-2-buten-1-yl)-4H,8H-benzo[1,2-b:3,4-b′]dipyran-4-one], for which the “expression of p-mTOR” value in the experiment with p-mTOR is recorded as “increased”. In the experiment with myogenin (0.1 and 1 μM), the “expression of myogenin mRNA” value is “increased”.
